Source: article PMC11396129, “Oxindole–benzothiazole hybrids as CDK2 inhibitors and anticancer agents: design, synthesis and biological evaluation” (BMC Chemistry, 2024)

Tests used:
[1] = tested on: MALME-3M; experiment: NCI 60 panel growth inhibition (SRB), melanoma; format: cell-based, human; settings: 10 μM
Summary of the method: (§1)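 Growth inhibition measured by SRB across a five-dose range; TGI defined as the concentration where test absorbance equals time-zero absorbance. Out-of-range effects expressed as above or below the highest or lowest concentration tested.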

[2] = tested on: MDA-MB-435; experiment: NCI 60 panel growth inhibition (SRB), melanoma; format: cell-based, human; settings: MDA-MB-435, 10 μM
Summary of the method: as §1

[3] = tested on: HCC-2998; experiment: NCI 60 panel growth inhibition (SRB), colon cancer; format: cell-based, human; settings: HCC-2998, 10 μM
Procedure: (§2) Screening of cytotoxic activity against a panel of sixty human tumor cell lines The selected compounds by NCI were evaluated for their anticancer activity in a two- stage process. […] Then, the output from the single dose screen is reported as a mean graph. […] Assay protocol. […] For a typical screening experiment, cells are inoculated into 96 well microtiter plates in 100 µL at plating densities ranging from 5000 to 40,000 cells/well depending on the doubling time of individual cell lines. […] After 24 h, two plates of each cell line are fixed in situ with TCA, to represent a measurement of the cell population for each cell line at the time of drug addition (Tz). The experimental drugs are solubilized in dimethyl sulfoxide at 400-fold the desired final maximum test concentration and stored frozen prior to use. At the time of drug addition, an aliquot of frozen concentrate is thawed and diluted to twice the desired final maximum test concentration with complete medium containing 50 µg/mL gentamicin. Additional four, 10-fold or ½ log serial dilutions are made to provide a total of five drug concentrations plus control. […] For adherent cells, the assay is terminated by the addition of cold TCA. […] The supernatant is discarded, and the plates are washed five times with tap water and air dried. […] Using the seven absorbance measurements [time zero, (Tz), control growth, (C), and test growth in the presence of drug at the five concentration levels (Ti)], the percentage growth is calculated at each of the drug concentrations levels. Percentage growth inhibition is calculated as: [(Ti Tz)/(C–Tz)] x 100 for concentrations for which Ti>/=Tz and [(Ti-Tz)/Tz] x 100 for concentrations for which Ti < Tz. Three dose response parameters are calculated for each experimental agent. […] The drug concentration resulting in total growth inhibition (TGI) is calculated from Ti = Tz. […] Values are calculated for each of these three parameters if the level of activity is reached; however, if the effect is not reached or is exceeded, the value for that parameter is expressed as greater or less than the maximum or minimum concentration tested.

[4] = tested on: COLO 205; experiment: NCI 60 panel growth inhibition (SRB), colon cancer; format: cell-based, human; settings: COLO 205, 10 μM
Procedure: as §2

[5] = tested on: SW-620; experiment: NCI 60 panel growth inhibition (SRB), colon cancer; format: cell-based, human; settings: SW-620, 10 μM
Procedure: as §2

[6] = tested on: HCT-15; experiment: NCI 60 panel growth inhibition (SRB), colon cancer; format: cell-based, human; settings: HCT-15, 10 μM
Procedure: as §2

[7] = tested on: HCT-116; experiment: NCI 60 panel growth inhibition (SRB), colon cancer; format: cell-based, human; settings: HCT-116, 10 μM
Procedure: as §2

[8] = tested on: KM12; experiment: NCI 60 panel growth inhibition (SRB), colon cancer; format: cell-based, human; settings: KM12, 10 μM
Procedure: as §2

[9] = tested on: SNB-75; experiment: NCI 60 panel growth inhibition (SRB), CNS cancer; format: cell-based, human; settings: SNB-75, 10 μM
Procedure: as §2

[10] = tested on: SNB-19; experiment: NCI 60 panel growth inhibition (SRB), CNS cancer; format: cell-based, human; settings: SNB-19, 10 μM
Procedure: as §2

[11] = tested on: SF-539; experiment: NCI 60 panel growth inhibition (SRB), CNS cancer; format: cell-based, human; settings: SF-539, 10 μM
Procedure: as §2

[12] = tested on: U251; experiment: NCI 60 panel growth inhibition (SRB), CNS cancer; format: cell-based, human; settings: U251, 10 μM
Procedure: as §2

[13] = tested on: SF-295; experiment: NCI 60 panel growth inhibition (SRB), CNS cancer; format: cell-based, human; settings: SF-295, 10 μM
Procedure: as §2

[14] = tested on: SF-268; experiment: NCI 60 panel growth inhibition (SRB), CNS cancer; format: cell-based, human; settings: SF-268, 10 μM
Procedure: as §2

[15] = tested on: NCI 60 cancer cell line panel; experiment: NCI 60 panel growth inhibition (SRB), whole panel; format: cell-based, human; settings: mean over NCI 60 panel, 10 μM
Procedure: as §2

[16] = tested on: A549/ATCC; experiment: NCI 60 panel growth inhibition (SRB), non-small cell lung cancer; format: cell-based, human; settings: 10 μM
Procedure: as §2

[17] = tested on: NCI-H322M; experiment: as above; format: cell-based, human; settings: 10 μM
Procedure: as §2

[18] = tested on: HOP-62; experiment: as above; format: cell-based, human; settings: HOP-62, 10 μM
Procedure: as §2

[19] = tested on: NCI-H522; experiment: as above; format: cell-based, human; settings: NCI-H522, 10 μM
Procedure: as §2

[20] = tested on: NCI-H226; experiment: as above; format: cell-based, human; settings: NCI-H226, 10 μM
Procedure: as §2

[21] = tested on: HOP-92; experiment: as above; format: cell-based, human; settings: HOP-92, 10 μM
Procedure: as §2

[22] = tested on: NCI-H23; experiment: as above; format: cell-based, human; settings: NCI-H23, 10 μM
Procedure: as §2

[23] = tested on: EKVX; experiment: as above; format: cell-based, human; settings: 10 μM
Procedure: as §2

[24] = tested on: NCI-H460; experiment: as above; format: cell-based, human; settings: NCI-H460, 10 μM
Procedure: as §2

| SMILES | GI% [1] | GI% [2] | GI% [3] | GI% [4] | GI% [5] | GI% [6] [%] | GI% [7] | GI% [8] [%] | GI% [9] | GI% [10] [%] | GI% [11] | GI% [12] | GI% [13] [%] | GI% [14] | melting point [°C] | GI% [16] [%] | GI% [17] | GI% [18] | GI% [19] | GI% [20] [%] | other results |
| --- | --- | --- | --- | --- | --- | --- | --- | --- | --- | --- | --- | --- | --- | --- | --- | --- | --- | --- | --- | --- | --- |
| COc1cccc(-c2nc3ccccc3s2)c1OCC(=O)NN=C1C(=O)Nc2ccc(C)cc21 [Compound 9h, 2-(2-(Benzo[d]thiazol-2-yl)-6-methoxyphenoxy)-N′-(5-methyl-2-oxoindolin-3-ylidene)acetohydrazide] | 16.42% | – (GI% < 5%) | – (GI% < 5%) | 7.03% | – (GI% < 5%) | 5.56 | 22.91% | 8.90 | – (GI% < 5%) | 8.33 | 9.04% | 5.89% | 19.06 | – (GI% < 5%) | 244 to 246 | 24.44 | 6.24% | – (GI% < 5%) | – (GI% < 5%) | 26.01 | Mean GI% [15]: 9.27%; GI% [21]: 23.13%; GI% [22]: 13.40%; GI% [23]: 27.92%; GI% [24]: – (GI% < 5%) |
| COc1cccc(-c2nc3ccccc3s2)c1OCC(=O)NN=C1C(=O)Nc2ccccc21 [Compound 9g, 2-(2-(Benzo[d]thiazol-2-yl)-6-methoxyphenoxy)-N′-(2-oxoindolin-3-ylidene)acetohydrazide] | 13.82% | 10.97% | – (GI% < 5%) | 25.08% | – (GI% < 5%) | 25.54 | 20.48% | 8.64 | – (GI% < 5%) | 13.10 | 9.46% | 8.36% | 29.36 | 5.11% | 246 to 248 | 16.44 | 10.24% | – (GI% < 5%) | 33.32% | 45.16 | Mean GI% [15]: 15.46%; GI% [21]: 34.60%; GI% [22]: 25.24%; GI% [23]: 29.56%; GI% [24]: – (GI% < 5%) |
| COc1ccc2c(c1)C(=NNC(=O)COc1c(OC)cccc1-c1nc3ccccc3s1)C(=O)N2 [Compound 9i, 2-(2-(Benzo[d]thiazol-2-yl)-6-methoxyphenoxy)-N′-(5-methoxy-2-oxoindolin-3-ylidene)acetohydrazide] | 12.81% | – (GI% < 5%) | – (GI% < 5%) | – (GI% < 5%) | – (GI% < 5%) | 9.87 | 17.55% | 8.46 | – (GI% < 5%) | 11.58 | 6.47% | – (GI% < 5%) | 13.86 | – (GI% < 5%) | 144 to 146 | 18.26 | 5.89% | – (GI% < 5%) | 7.04% | 29.04 | Mean GI% [15]: 6.32%; GI% [21]: 31.66%; GI% [22]: 11.65%; GI% [23]: 24.10%; GI% [24]: – (GI% < 5%) |
| COc1cccc(-c2nc3ccccc3s2)c1OCC(=O)NN=C1C(=O)Nc2ccc([N+](=O)[O-])cc21 [Compound 9j, 2-(2-(Benzo[d]thiazol-2-yl)-6-methoxyphenoxy)-N′-(5-nitro-2-oxoindolin-3-ylidene)acetohydrazide] | 12.74% | 6.00% | – (GI% < 5%) | – (GI% < 5%) | – (GI% < 5%) | 5.47 | 7.08% | 5.79 | – (GI% < 5%) | 5.77 | – (GI% < 5%) | – (GI% < 5%) | 11.71 | – (GI% < 5%) | 276 to 278 | 5.97 | 6.18% | – (GI% < 5%) | – (GI% < 5%) | 21.82 | Mean GI% [15]: – (GI% < 5%); GI% [21]: 30.70%; GI% [22]: 22.82%; GI% [23]: 26.64%; GI% [24]: – (GI% < 5%) |
| O=C(COc1ccccc1-c1nc2ccccc2s1)NN=C1C(=O)Nc2ccccc21 [Compound 9a, 2-(2-(Benzo[d]thiazol-2-yl)phenoxy)-N′-(2-oxoindolin-3-ylidene)acetohydrazide] | – (GI% < 5%) | – (GI% < 5%) | – (GI% < 5%) | – (GI% < 5%) | – (GI% < 5%) | 8.99 | – (GI% < 5%) | 6.23 | – (GI% < 5%) | 6.15 | 5.56% | – (GI% < 5%) | 14.46 | 6.56% | 238 to 240 | 11.63 | – (GI% < 5%) | – (GI% < 5%) | – (GI% < 5%) | 23.61 | GI% [21]: 6.37%; GI% [22]: 6.36%; GI% [23]: 37.48%; GI% [24]: – (GI% < 5%) |
